Laboratory results as given in patent US8334107B2, “Detection systems utilizing supported lipid bilayers” (priority 2005, dated 2012).

Tests used:
[1] = tested on: DMPG lipid bilayer on MS-PPE; test: Disruption of DMPG lipid bilayer on MS-PPE detected by superquenching with AQS, flow cytometry; assay type: biochemical
Experimental: Lipid bilayers were disrupted by adding Triton X-100® detergent to the bead suspension to a final concentration of 0.25% (w/v).
(§1) Bead suspensions of 2.5×10^5 PPE-coated microspheres in 200 μL PBS were analyzed using a FACScan flow cytometer (Becton-Dickinson, Sunnyvale, Calif.) with excitation at 488 nm. Fluorescence signals were acquired on the FL-1 channel (525 nm) using log amplification and analyzed with the CellQuest software.
Bead suspensions of 2.5×10^5 DMPG-coated MS-PPE in 200 μL of PBS were analyzed using a FACScan flow cytometer (Becton-Dickinson, Sunnyvale, Calif.) with excitation at 488 nm. Fluorescence signals were acquired on FL-1 channel (525 nm) using log amplification and analyzed with the CellQuest software. Kinetic analysis of disruption of supported lipid bilayer by melittin was performed by acquiring real-time data with continuous mixing of samples (10^6 MS-PPE in 800 μl of PBS) using a magnetic stirrer. The raw data were analyzed using IDL Query software developed by Bruce Edwards (Cancer Center, University of New Mexico, Albuquerque, N. Mex.).
Because an anionic lipid was used to form a lipid bilayer around MS-PPE, it was expected that MLT will disrupt the DMPG lipid bilayer by such a detergent-like action. This was tested by adding 10 μM AQS to DMPG-coated MS-PPE followed by treatment with one of the following: Triton X-100® detergent, synthetic MLT (sMLT), or natural MLT (nMLT) and immediately reading the fluorescence by flow cytometry. […] These histograms resemble the ones reported previously for MS-PPE, without a lipid coating, in absence and in presence of AQS.
The kinetics of disruption of supported lipid bilayer by MLT were monitored by measuring real-time changes in fluorescence intensity by flow cytometry (FIG. 19). Suspensions of 10^6 DMPG-coated MS-PPE in 800 μL of PBS were treated with AQS at a final concentration of 10 μM, then with either sMLT, Triton X-100® detergent, or no treatment. […] Treatment with sMLT in the absence of AQS led to an increase in normalized fluorescence (FIG. 19, trace A). This can be attributed to disruption of the lipid bilayer by sMLT, and is consistent with a reversal of the slight quenching of fluorescence caused by the formation of a DMPG lipid bilayer over MS-PPE. Addition of AQS alone to DMPG-coated MS-PPE (FIG. 19, trace C) led to a 20% reduction in fluorescence as reported earlier. Addition of Triton X-100® detergent to DMPG-coated MS-PPE after the addition of AQS (first dip in trace E, FIG. 19) caused immediate decrease in fluorescence to ˜10% of its original value (second dip in trace E, FIG. 19). In contrast, addition of sMLT, after the addition of AQS, (FIG. 19, trace D) led to a gradual reduction of fluorescence intensity to ˜20% of the original value. Although MLT forms dimers at high concentrations (Dempsey, C. E. Biochim. Biophys. Acta 1990, 1031, 143-161), it is monomeric at the concentrations used in this study. On the other hand, Triton X-100® detergent forms micelles at the concentration used in this study.

[2] = tested on: EPC bilayer on porous silica beads; test: Suspension study: release of fluorescein dye from lipid bilayer coated porous silica beads; assay type: biochemical
Experimental: Lipid coatings on beads were disrupted using 10% Triton X-100. Each sample in micro-centrifuge tubes contained 5 mg of lipid bilayer coated, fluorescein entrapped beads in 200 μL of Tris buffer. Samples were centrifuged and 100 μL aliquots of supernatant were mixed with either 100 μL of Tris buffer or 100 μL of 10% Triton X-100® detergent in separate centrifuge tubes. The fluorescence intensity of each mixture was immediately (time=0) recorded. Each mixture was mixed with its respective bead sample in centrifuge tube and incubated at 25° C. in the dark. After 30 min, samples were centrifuged and fluorescent intensity of the supernatants was measured. Beads were resuspended in their respective supernatants. Fluorescence intensity was again measured at 90 and 150 min.
Experimental procedures were similar to the Triton X-100® detergent based analysis. For experiments with α-toxin, three different toxin concentrations: 15, 45 and 250 μg/mL were used at 37° C. and 25° C. Beads coated with EPC were used. In the experiments with melittin, 220 μM melittin was used with beads coated with either 100% EPC, 10:90 (molar ratio) mixture of DMPG and EPC or an 80:20 mixture of DMPG and DMPC. All melittin experiments were conducted at 25° C.
Previous suspension studies on disruption of lipid bilayers have been performed with small unilamellar vesicles where disruption of the lipid bilayer membranes was detected by monitoring the unquenching of a highly concentrated, encapsulated dye. In the present work disruption was monitored via release of fluorescein dye from porous beads, by measuring the increase in fluorescence intensity of the supernatant at 520 nm. Beads were first suspended in Tris buffer containing the disruptor. After selected time periods, beads were sedimented by centrifuging and a portion of the supernatant was taken for the measurement. The measured portion was added back to the bead sample to permit continuous monitoring. The scattering effect that was present in vesicle based studies was minimized by measuring only the supernatant after centrifugation of the beads.

[3] = tested on: lipid membranes on porous silica beads (containing fluorescein dye); test: Microfluidic study: detection of membrane interaction by release of dye from bead packed microcolumn; assay type: biochemical
Experimental: To create a packed microcolumn of lipid coated beads containing fluorescein, 2 μL of silica bead (diameter=20 μm) containing suspension (0.05 mg/μL) was injected into a microfluidic channel by applying vacuum at the outlet port of the microchannel, followed by the injection of 10 μL of fluorescein-entrapped bead (diameter=10 μm) containing suspension (0.05 mg/μL). The bead packed microchannel was mounted onto a vertical translational stage located in the sample holder space of the fluorimeter. Just below the bead segment, the microchannel was irradiated with an Argon ion laser (λ=488 nm, 8-10 mW) excitation. The inlet of the column was connected to a buffer reservoir while the outlet was connected to a vacuum source. As the fluorescence intensity at 520 nm was monitored, several microliters of Tris buffer was passed through the microchannel before the injection of Triton X-100® detergent. […]
The packed segment was about 2 mm long. The disruption of the membranes on porous silica beads (containing fluorescein dye) by Triton X-100® detergent was detected by monitoring the release of the dye from the beads, at a point just below the bead segment as indicated in FIG. 7B. […] The microcolumn was irradiated at 488 nm and fluorescence intensity was monitored at 520 nm. […]

[4] = Lipid bilayers on MS-PPE as barriers to superquenching by AQS, flow cytometry; assay type: physicochemical; conditions: 10 μM AQS
Experimental: Small unilamellar vesicles (SUVs) were prepared using a 2 mM solution of DPPC, 1 mM egg-PC, or 2 mM DMPG in chloroform. The lipid was dried by nitrogen gas followed by vacuum. The dried lipid was resuspended in phosphate buffer saline (PBS), pH 7.4, and incubated at 37° C. for 10 min, then sonicated to optical clarity in a sonication bath (Branson Cleaning Equipment Co., Shelton, Conn.).
Lipid bilayers were assembled on microspheres as previously described (Buranda et al. Langmuir 19:1654-1663 (2003); Bayerl & Bloom, Biophys J 58:357-362 (1990)). Briefly, the small unilamellar vesicles were incubated at 37° C. for 5 min, and PPE-coated microspheres were added to them, and mixed at room temperature using a vortex mixer for 30 min, followed by incubation at 37° C. for 5 min without mixing. The lipid-coated PPE-coated microspheres were washed by suspension in PBS followed by centrifugation, where the clear supernatant was decanted and discarded. The cycle of resuspension, centrifugation, and decanting, was repeated four additional times. Finally, the lipid-coated PPE-coated microspheres were resuspended in PBS.
as §1
The feasibility of using the zwitterionic lipids DPPC and egg-PC to form supported lipid bilayers on MS-PPE was assessed (FIG. 15). […] Addition of AQS produced an almost 40% reduction of the polymer fluorescence, yet the fluorescence of the DPPC bilayer coated MS-PPE in the presence of the AQS quencher was still almost 10-fold higher than that of MS-PPE and quencher without the lipid.
The PPE polymer is positively charged. […] However when using 2 mM DMPG, the modulation of polymer fluorescence was relatively small (FIG. 15). […] Thus, upon addition of quencher to MS-PPE after treatment with DMPG ˜70% of fluorescence of the PPE was retained (FIGS. 16A and 16B).

[5] = 0.25% (w/v) Triton X-100, 10 μM AQS

## Triton X-100
[1]; [5]
  fluorescence after bilayer disruption, of the fluorescence of DMPG-coated MS-PPE in the absence of quencher: ~18%
  fluorescence after bilayer disruption, of the original fluorescence value: ~10%
[1]; real-time kinetics, added after 10 μM AQS (traces D, E)
  fluorescence intensity, of the original value: ~10%
[2]; 10% Triton X-100, first 30 min, 25° C.
  increase in fluorescence intensity of the supernatant: more than 70 fold
[2]; Triton X-100 added after 150 min of α-toxin exposure
  increase in fluorescence intensity (total disruption of bilayers): 50 fold
[3]; 10% Triton X-100, microcolumn versus suspension
  initial signal (1st peak) less than that observed in suspension studies: ~80%
[3]; 10 μL of 10% Triton X-100, about 5 min no flow incubation
  increase in fluorescence intensity at detection point: 25 fold

## CCCCCCCCCCCCCC(=O)OC[C@H](COP(=O)([O-])OCC(O)CO)OC(=O)CCCCCCCCCCCCC.[Na+] (mixture of isomers) [DMPG, 1,2-dimyristoyl-sn-glycero-3-[phosphor-rac-(1-glycerol)] sodium salt]
[4]; 2 mM DMPG
  fluorescence of the PPE retained upon addition of quencher: ~70%

## CCCCCCCCCCCCCCCC(=O)OC[C@H](COP(=O)([O-])OCC[N+](C)(C)C)OC(=O)CCCCCCCCCCCCCCC [DPPC, 1,2-dipalmitoyl-sn-glycero-3-phosphatidylcholine]
[4]
  fluorescence with AQS relative to MS-PPE and quencher without the lipid: ~10 fold
[4]; lipid coated MS-PPE
  reduction (quenching) of polymer fluorescence on addition of AQS: ~40%
